Assay: Partition coefficient (logD7.4)
Conditions: octanol/water, pH 7.4

Row | Compound | logD
1 | CC(C)(C)NCC(O)c1cc(O)cc(O)c1 (stereo unspecified) | -1.35
2 | CNS(=O)(=O)Cc1ccc2[nH]cc(CCN(C)C)c2c1 | -1
3 | Oc1cc(Cl)cc(Cl)c1 | 3.68
4 | CSc1ncnc2c1ncn2[C@@H]1O[C@H](CO)[C@@H](O)[C@H]1O | 0.09
5 | Brc1cnc2ccccc2c1 | 3.03
6 | Nc1nc(N)c2nc(-c3ccccc3)c(N)nc2n1 | 1.21
7 | Oc1ncnc2[nH]ncc12 [ALLOPURINOL] | -0.44
8 | C=CCc1ccccc1OCC(O)CNC(C)C (stereo unspecified) [ALPRENOLOL] | 0.97
9 | CCOC(=O)C1=C(COCCN)NC(C)=C(C(=O)OC)C1c1ccccc1Cl (stereo unspecified) [AMLODIPINE] | 1.66
10 | c1ccc(-c2ccc(C(c3ccccc3)n3ccnc3)cc2)cc1 (stereo unspecified) [BIFONAZOLE] | 4.77
11 | O=C1CN=C(c2ccccn2)c2cc(Br)ccc2N1 [BROMAZEPAM] | 1.65
12 | NC(=O)N1c2ccccc2C=Cc2ccccc21 [CARBAMAZEPINE] | 2.19
13 | CN(C)CCC(c1ccc(Cl)cc1)c1ccccn1 (stereo unspecified) [CHLORPHENIRAMINE] | 1.41
14 | NS(=O)(=O)c1cc(C2(O)NC(=O)c3ccccc32)ccc1Cl (stereo unspecified) [CHLORTHALIDONE] | 1.11
15 | Clc1cccc(Cl)c1N=C1NCCN1 [CLONIDINE] | 0.62
16 | COC(=O)[C@H]1[C@@H](OC(=O)c2ccccc2)C[C@@H]2CC[C@H]1N2C [COCAINE] | 1.05
17 | COc1ccc2c3c1O[C@H]1[C@@H](O)C=C[C@H]4[C@@H](C2)N(C)CC[C@@]341 [CODEINE] | 0.23
18 | CC/C(=C(/CC)c1ccc(O)cc1)c1ccc(O)cc1 [DIETHYLSTILBESTROL] | 5.07

Row | Compound | logD
19 | CC(C)N(CCC(C(N)=O)(c1ccccc1)c1ccccn1)C(C)C (stereo unspecified) [DISOPYRAMIDE] | -0.66
20 | O=C(NCC1CCCCN1)c1cc(OCC(F)(F)F)ccc1OCC(F)(F)F (stereo unspecified) [FLECAINIDE] | 0.97
21 | COC1=CC(=O)C[C@@H](C)[C@]12Oc1c(Cl)c(OC)cc(OC)c1C2=O [GRISEOFULVIN] | 2.18
22 | CN1C(=O)C(O)N=C(c2ccccc2Cl)c2cc(Cl)ccc21 (stereo unspecified) [LORMETAZEPAM] | 2.72
23 | CN1CCC[C@H]1c1cccnc1 [NICOTINE] | 0.4
24 | O=[N+]([O-])c1ccc(/C=N/O)o1 [NIFUROXIME] | 1.28
25 | NC(=O)N/N=C/c1ccc([N+](=O)[O-])o1 [NITROFURAZONE] | 0.23
26 | CNC(=C[N+](=O)[O-])NCCSCc1csc(CN(C)C)n1 [NIZATIDINE] | -0.52
27 | COc1ccc2[nH]c([S+]([O-])Cc3ncc(C)c(OC)c3C)nc2c1 (stereo unspecified) [OMEPRAZOLE] | 2.3
28 | CC(=O)CCCCn1c(=O)c2c(ncn2C)n(C)c1=O [PENTOXIFYLLINE] | 0.29
29 | CN1CCN(CC(=O)N2c3ccccc3C(=O)Nc3cccnc32)CC1 [PIRENZEPINE] | -0.61
30 | c1ccc2ncccc2c1 [QUINOLINE] | 2.03
31 | CNC(=C[N+](=O)[O-])NCCSCc1ccc(CN(C)C)o1 [RANITIDINE] | -0.29
32 | C[C@]12CC[C@H]3[C@@H](CCC4=CC(=O)CC[C@@]43C)[C@@H]1CC[C@@H]2O [TESTOSTERONE] | 3.29
33 | CCCCNc1ccc(C(=O)OCCN(C)C)cc1 [TETRACAINE] | 2.29
34 | CS(=O)(=O)c1ccc([C@@H](O)[C@@H](CO)NC(=O)C(Cl)Cl)cc1 [THIAMPHENICOL] | -0.27
35 | CSc1ccc2c(c1)N(CCC1CCCCN1C)c1ccccc1S2 (stereo unspecified) [THIORIDAZINE] | 3.34
36 | CCN(CC)CCNC(=O)c1cc(S(C)(=O)=O)ccc1OC [TIAPRIDE] | -0.09

Source: ChEMBL document CHEMBL1134540, “ElogD(oct): a tool for lipophilicity determination in drug discovery. 2. Basic and neutral compounds” (J Med Chem, 2001)
